According to patent US10800757B2, “Inhibitors of TRPC6” (Boehringer Ingelheim International GmbH, priority 2017, dated 2020):

Molecular target: TRPC6 (Homo sapiens (Human), UniProt Q9Y210)
Test: High throughput screening assay: fluorescent calcium (Fluo4/AM) assay of TRPC6 channel activation by GSK1702934A in HEK293/TREx cells
Assay type: cell-based
Conditions: HEK293/TREx cells stably transfected with TRPC6; agonist GSK1702934A; 7 concentrations 20 μM to 0.027 μM, triplicate
Text: This screening assay measures TRPC6 (transient receptor potential cation channel, subfamily C, member 6) ion channel activation via addition either of the commercially available DAG ligand analogue OAG (1-oleoyl-2-acetyl-sn-glycerol) or of the TRPC6 agonist 1-[1-(4,5,6,7,8-pentahydrocyclohepta[2,1-d]thiophen-2-ylcarbonyl)-4-piperidyl]-3-hydrobenzimidazol-2-one (GSK1702934A). The assay utilizes a FLIPR fluorescent calcium sensor 4-(6-Acetoxymethoxy-2,7-difluoro-3-oxo-9-xanthenyl)-4′-methyl-2,2′-(ethylenedioxy)dianiline-N,N,N′,N′-tetraacetic acid tetrakis(acetoxymethyl) ester (Fluo4/AM) […]. Changes (increases) in intracellular membrane calcium concentration potential as measured by the fluorescent signal increase during membrane depolarization provide a measurement of channel activity.
The commercially available HEK293/TREx line (Invitrogen) was stably transfected with a TRPC6 construct and screened by conventional calcium imaging to find clones with TRPC6 expression following stimulation with 1 μg/ml tetracycline. These cells were maintained in the growth medium recommended by the manufacturer supplemented with 100 μg/ml hygromycin to promote retention of the TRPC6 construct. After growing to near confluency, cells were plated at a density of ^˜35,000 cells/well in 384 well CellBind plates (Corning) in the presence of 1 μg/ml tetracycline, and allowed to grow for 20-30 hrs. A nearly confluent monolayer resulted. Growth media was removed from the wells and cells were then loaded with […] Fluo4/AM diluted in Ringer's Solution (6.5 g NaCl, 0.42 g KCl, 0.25 g CaCl2) and 0.2 g of sodium bicarbonate; pH 7.4) supplemented with 1% Pluronic F-127 to a final concentration of 0.5 μM and incubated for 60 min, at room temperature. Dye solution was then removed from the cells by inverting plates with a sharp flick, and replaced with 25 μl Ringer's. Following ^˜0.5 hour for recovery from loading, cells were assayed using the Hamamatsu FDSS 6000 system, which permitted illumination at 485 nm. Frames were acquired at a rate of 0.2 Hz. During the assay, the plates were continuously vortexed, with pipette mixing of wells following addition of each reagent. For the screening assay, 26 μl of a diluted compound stock (at 50 μM) was added to each well for 2 minutes following the collection of a short (4 frame) baseline. 13 μl of agonist solution consisting of 125 nM GSK1702934A diluted in high-Ca2+Ringer solution (containing 90 mm Ca2+) was then added to each well, achieving a final concentration of 20 mm Ca2+ and 10 μM test compound. Data was collected for ^˜3 minutes following addition of high Ca2+Ringer. The fluorescent ratio for each well was divided by the initial fluorescent intensity for that well and the overall response was determined by averaging the fluorescent ratio of the last 4 frames acquired during the experiment excepting the final frame. Negative and Positive controls were included on each plate. Negative controls wells consisted of HEK293/TREx TRPC6 cells exposed to assay buffer and agonist solution, but no test compound. Positive control consisted of wells consisted of HEK293/TREx TRPC6 cells exposed to 25 μM 3-[(2-chlorophenoxy)methyl]phenyl piperidyl ketone (Chembridge) diluted in Ringer's solution and agonist solution. These controls defined zero percent and 100 percent block respectively, and intensity of each well was normalized to these values.
Compounds were tested in triplicate at all concentrations. Standard software was used to fit IC50 curves.

TRPC6, sequence (Q9Y210 whole entry, species assumed): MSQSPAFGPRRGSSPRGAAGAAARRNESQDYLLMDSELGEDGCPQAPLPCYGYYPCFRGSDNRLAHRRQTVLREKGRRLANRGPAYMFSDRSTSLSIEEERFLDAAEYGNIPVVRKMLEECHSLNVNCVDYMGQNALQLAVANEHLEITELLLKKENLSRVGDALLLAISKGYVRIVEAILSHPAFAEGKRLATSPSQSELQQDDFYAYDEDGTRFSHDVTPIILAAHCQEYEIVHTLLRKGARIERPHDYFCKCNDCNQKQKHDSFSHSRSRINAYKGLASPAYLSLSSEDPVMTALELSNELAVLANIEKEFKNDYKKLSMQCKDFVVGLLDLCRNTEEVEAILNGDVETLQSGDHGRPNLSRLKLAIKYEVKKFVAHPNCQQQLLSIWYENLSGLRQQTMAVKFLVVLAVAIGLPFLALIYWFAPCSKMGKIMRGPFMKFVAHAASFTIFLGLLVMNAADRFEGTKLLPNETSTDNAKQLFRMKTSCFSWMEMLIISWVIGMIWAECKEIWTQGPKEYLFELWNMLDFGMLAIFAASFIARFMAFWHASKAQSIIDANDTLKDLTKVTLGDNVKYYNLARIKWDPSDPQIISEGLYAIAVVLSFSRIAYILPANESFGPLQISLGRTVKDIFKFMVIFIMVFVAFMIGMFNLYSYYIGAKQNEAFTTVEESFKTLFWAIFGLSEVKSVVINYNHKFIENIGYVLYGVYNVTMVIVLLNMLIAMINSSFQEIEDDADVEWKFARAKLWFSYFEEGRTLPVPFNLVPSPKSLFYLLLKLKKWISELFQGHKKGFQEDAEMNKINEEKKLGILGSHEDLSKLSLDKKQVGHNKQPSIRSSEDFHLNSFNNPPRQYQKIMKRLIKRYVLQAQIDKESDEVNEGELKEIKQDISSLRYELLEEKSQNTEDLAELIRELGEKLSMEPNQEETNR

Row | Compound | IC50
1 | COc1cc(C(=O)N2CCC(c3cnc(N)cc3OC)CC2)ncc1Oc1ccc(C(F)(F)F)cc1 [Compound 24, (6-Amino-4-methoxy-3′,4′,5′,6′-tetrahydro-2′H-[3,4′]bipyridinyl-1′-yl)-[4-methoxy-5-(4-trifluoromethyl-phenoxy)-pyridin-2-yl]-methanone] | 67 nM
2 | COc1cc(C(=O)N2CCC(c3ccc(N)nn3)CC2)ncc1OCC1CCC1 [Compound 25, [4-(6-Amino-pyridazin-3-yl)-piperidin-1-yl]-(5-cyclobutylmethoxy-4-methoxy-pyridin-2-yl)-methanone] | 70 nM
3 | COc1cc(C(=O)N2CCC(c3cnc(N)cc3OC)CC2)ncc1OCC1(C)CC1 [Compound 26, (6-Amino-4-methoxy-3′,4′,5′,6′-tetrahydro-2′H-[3,4′]bipyridinyl-1′-yl)-[4-methoxy-5-(1-methyl-cyclopropylmethoxy)-pyridin-2-yl]-methanone] | 71 nM
4 | COC[C@H]1CN(c2cnc(N)cc2OC)CCN1C(=O)c1cc(OC)c(Oc2ccccc2)cn1 [Compound 27, [(R)-4-(6-Amino-4-methoxy-pyridin-3-yl)-2-methoxymethyl-piperazin-1-yl]-(4-methoxy-5-phenoxy-pyridin-2-yl)-methanone] | 75 nM
5 | COc1ccc(Oc2cnc(C(=O)N3CCC(c4cnc(N)cc4OC)CC3)cc2OC)cc1 [Compound 28, (6-Amino-4-methoxy-3′,4′,5′,6′-tetrahydro-2′H-[3,4′]bipyridinyl-1′-yl)-[4-methoxy-5-(4-methoxy-phenoxy)-pyridin-2-yl]-methanone] | 100 nM
6 | COc1cc(C(=O)N2CCC(c3nnc(N)cc3C)CC2)ncc1Oc1ccc(F)cc1 [Compound 29, 6-{-[5-(4-Fluorophenoxy)-4-methoxypyridine-2-carbonyl]piperidin-4-yl}-5-methylpyridazin-3-amine trifluoroacetic acid] | 110 nM
7 | COc1cc(C(=O)N2CCC(c3cnc(N)cc3OC)CC2)ncc1OC1CCCCC1 [Compound 30, (6-Amino-4-methoxy-3′,4′,5′,6′-tetrahydro-2′H-[3,4′]bipyridinyl-1′-yl)-(5-cyclohexyloxy-4-methoxy-pyridin-2-yl)-methanone] | 110 nM
8 | COc1cc(C(=O)N2CCC(c3nnc(N)cc3C)CC2)ncc1Oc1ccccc1 [Compound 31, 6-[1-(4-Methoxy-5-phenoxypyridine-2-carbonyl)piperidin-4-yl]-5-methylpyridazin-3-amine trifluoroacetic acid] | 120 nM
9 | COc1cc(C(=O)N2CCC(c3cnc(N)cc3OC)CC2)ncc1OCc1ccc(F)cc1 [Compound 32, (6-Amino-4-methoxy-3′,4′,5′,6′-tetrahydro-2′H-[3,4′]bipyridinyl-1′-yl)-[5-(4-fluoro-benzyloxy)-4-methoxy-pyridin-2-yl]-methanone] | 130 nM
10 | COc1cc(C(=O)N2CCC(c3ccc(N)nn3)CC2)ncc1Oc1ccc(C(F)(F)F)cc1 [Compound 33, [4-(6-Amino-pyridazin-3-yl)-piperidin-1-yl]-[4-methoxy-5-(4-trifluoromethyl-phenoxy)-pyridin-2-yl]-methanone] | 82 nM
11 | COc1cc(C(=O)N2CCC(c3ccc(N)nn3)CC2)ncc1Oc1ccc(Cl)cc1 [Compound 34, [4-(6-Amino-pyridazin-3-yl)-piperidin-1-yl]-[5-(4-chloro-phenoxy)-4-methoxy-pyridin-2-yl]-methanone] | 85 nM
12 | COc1cc(C(=O)N2CCC(c3cnc(N)cc3OC)CC2)ncc1OC1CCCC1 [Compound 35, (6-Amino-4-methoxy-3′,4′,5′,6′-tetrahydro-2′H-[3,4′]bipyridinyl-1′-yl)-(5-cyclopentyloxy-4-methoxy-pyridin-2-yl)-methanone] | 94 nM
13 | COc1cc(C(=O)N2CCC(c3ccc(N)nn3)CC2)ncc1OCC(C)C [Compound 36, [4-(6-Amino-pyridazin-3-yl)-piperidin-1-yl]-(5-isobutoxy-4-methoxy-pyridin-2-yl)-methanone] | 97 nM
14 | COc1cc(C(=O)N2CCC(c3cnc(N)cc3OC)CC2)ncc1OCC1CC1 [Compound 37, 5-{1-[5-(Cyclopropylmethoxy)-4-methoxypyridine-2-carbonyl]piperidin-4-yl}-4-methoxypyridin-2-amine] | 160 nM
15 | COc1cc(C(=O)N2C3CCC2CN(c2cnc(N)cc2OC)C3)ncc1Oc1ccc(F)cc1 [Compound 38, [3-(6-Amino-4-methoxy-pyridin-3-yl)-3,8-diaza-bicyclo[3.2.1]oct-8-yl]-[5-(4-fluoro-phenoxy)-4-methoxy-pyridin-2-yl]-methanone] | 170 nM
16 | COc1cc(C(=O)N2CCC(c3cnc(N)cc3OC)CC2)ncc1OCC(C)C [Compound 39, 4-Methoxy-5-{1-[4-methoxy-5-(2-methylpropoxy)pyridine-2-carbonyl]piperidin-4-yl}-pyridin-2-amine trifluoroacetic acid] | 170 nM
17 | COc1cc(C(=O)N2CCC(c3ccc(N)nn3)CC2)ncc1Oc1ccc(OC2CC2)cc1 [Compound 40, [4-(6-Amino-pyridazin-3-yl)-piperidin-1-yl]-[5-(4-cyclopropoxy-phenoxy)-4-methoxy-pyridin-2-yl]-methanone] | 170 nM
18 | COc1cc(C(=O)N2CCC(c3ccc(N)nn3)CC2)ncc1OCc1ccc(F)cc1 [Compound 41, [4-(6-Amino-pyridazin-3-yl)-piperidin-1-yl]-[5-(4-fluoro-benzyloxy)-4-methoxy-pyridin-2-yl]-methanone] | 180 nM
19 | COc1cc(C(=O)N2CCN(c3cnc(N)cc3OC)C[C@@H]2CO)ncc1Oc1ccc(F)cc1 [Compound 42, [(R)-4-(6-Amino-4-methoxy-pyridin-3-yl)-2-hydroxymethyl-piperazin-1-yl]-[5-(4-fluoro-phenoxy)-4-methoxy-pyridin-2-yl]-methanone] | 140 nM
20 | COc1cc(C(=O)N2CCC(c3cnc(N)cc3OC)CC2)ncc1OCc1ccccc1 [Compound 43, (6-Amino-4-methoxy-3′,4′,5′,6′-tetrahydro-2′H-[3,4′]bipyridinyl-1′-yl)-(5-benzyloxy-4-methoxy-pyridin-2-yl)-methanone] | 140 nM
21 | COc1ccc(Oc2cnc(C(=O)N3CCC(c4ccc(N)nn4)CC3)cc2OC)cc1 [Compound 44, [4-(6-Amino-pyridazin-3-yl)-piperidin-1-yl]-[4-methoxy-5-(4-methoxy-phenoxy)-pyridin-2-yl]-methanone] | 140 nM
22 | COc1cc(C(=O)N2CCC(c3cnc(N)cc3OC)CC2)ncc1OCC1CC(F)(F)C1 [Compound 45, (6-Amino-4-methoxy-3′,4′,5′,6′-tetrahydro-2′H-[3,4′]bipyridinyl-1′-yl)-[5-(3,3-difluoro-cyclobutylmethoxy)-4-methoxy-pyridin-2-yl]-methanone] | 150 nM
23 | CCCOc1cnc(C(=O)N2CCC(c3cnc(N)cc3OC)CC2)cc1OC [Compound 46, (6-Amino-4-methoxy-3′,4′,5′,6′-tetrahydro-2′H-[3,4′]bipyridinyl-1′-yl)-(4-methoxy-5-propoxy-pyridin-2-yl)-methanone] | 160 nM
24 | COc1cc(C(=O)N2CCC(c3nnc(N)cc3OC)CC2)ncc1Oc1ccccc1 [Compound 47, 5-Methoxy-6-[1-(4-methoxy-5-phenoxypyridine-2-carbonyl)piperidin-4-yl]pyridazin-3-amine] | 220 nM
25 | COc1cc(C(=O)N2CCC(c3cnc(N)cc3OC)CC2)ncc1OCCC1CC1 [Compound 48, (6-Amino-4-methoxy-3′,4′,5′,6′-tetrahydro-2′H-[3,4′]bipyridinyl-1′-yl)-[5-(2-cyclopropyl-ethoxy)-4-methoxy-pyridin-2-yl]-methanone] | 250 nM
26 | COc1cc(C(=O)N2CCC(c3nnc(N)cc3OC)CC2)ncc1Oc1ccc(F)cc1 [Compound 49, [4-(6-Amino-4-methoxy-pyridazin-3-yl)-piperidin-1-yl]-[5-(4-fluoro-phenoxy)-4-methoxy-pyridin-2-yl]-methanone] | 250 nM
